Converted amounts (≈) assume the structure as drawn. The source made the active and inactive calls. No cut-off for these calls is given here. Where a SMILES comes first, the peptide text is derived from it.
Columns and labels:
[1] = test system: Cell membrane; test: Disruption of outer membrane integrity in Escherichia coli assessed as increase in fluorescence intensity by measuring NPN uptake at 1 to 4 times MIC by fluorescence based analysis; format: cell membranes; conditions: TDE = time-dependent effect
[2] = test system: Escherichia coli; test: Antibacterial activity against Escherichia coli ATCC 25922 incubated for 18 hrs in presence of 50 mM NaCl by visual inspection method; format: functional
[3] = test system: Acinetobacter baumannii; test: Antibacterial activity against Acinetobacter baumannii ATCC 19606 incubated for 18 hrs by visual inspection method; format: functional
[4] = test system: Cell membrane; test: Induction of cell membrane damage in Escherichia coli assessed as change in morphology by measuring numerous blebs covered membrane at 4 times MIC incubated for 5 hrs by SEM analysis; format: cell membranes
[5] = test system: Cell membrane; test: Induction of cell membrane damage in Staphylococcus aureus assessed as decrease in red/green fluorescence ratio at 2 times MIC by DiOC2(3) fluorescent probe based assay; format: cell membranes
[6] = test system: Cell membrane; test: Induction of cell membrane damage in Staphylococcus aureus at 4 times MIC incubated for 30 mins by PI staining based confocal laser scanning microscopic analysis; format: cell membranes
[7] = test system: Cell membrane; test: Induction of inner membrane permeability in Escherichia coli ML-35 measured every 5 mins for 90 mins by ONPG dye based assay; format: cell membranes
[8] = test system: Cell membrane; test: Induction of cell membrane damage in Escherichia coli assessed as change in morphology by measuring roughened membrane at 4 times MIC incubated for 5 hrs by SEM analysis; format: cell membranes
[9] = test system: Staphylococcus aureus; test: Antibacterial activity against Staphylococcus aureus ATCC 25923 incubated for 18 hrs by visual inspection method; format: functional
[10] = test system: Klebsiella pneumoniae; test: Antibacterial activity against Klebsiella pneumoniae ATCC 700603 incubated for 18 hrs by visual inspection method; format: functional
[11] = test system: Acinetobacter baumannii; test: Antibacterial activity against multidrug resistant Acinetobacter baumannii 5 incubated for 18 hrs by visual inspection method; format: functional
[12] = test system: Staphylococcus aureus; test: Antibacterial activity against methicillin resistant Staphylococcus aureus 4 incubated for 18 hrs by visual inspection method; format: functional
[13] = Hemolytic activity in rat erythrocytes at 1000 ug/ml incubated for 1 hr; format: toxicity, cell-based, Erythrocyte; conditions: at 1000 µg/mL, read-out: Activity
[14] = test system: Erythrocyte; test: Hemolytic activity in rat erythrocytes at 500 to 1000 ug/ml incubated for 1 hr; format: toxicity, cell-based; conditions: dose 500-1000 µg/ml
[15] = test system: Cell membrane; test: Induction of inner membrane permeability in Escherichia coli ML-35 at 1 to 4 times MIC by ONPG dye based assay; format: cell membranes; conditions: TDE = time-dependent effect
[16] = test system: Staphylococcus epidermidis; test: Antibacterial activity against Staphylococcus epidermidis ATCC 12228 incubated for 18 hrs by visual inspection method; format: functional
[17] = test system: Escherichia coli; test: Antibacterial activity against ESBL Escherichia coli 2 incubated for 18 hrs by visual inspection method; format: functional
[18] = test system: Staphylococcus aureus; test: Antibacterial activity against Staphylococcus aureus ATCC 25923 incubated for 18 hrs in presence of 100 mM NaCl by visual inspection method; format: functional
[19] = test system: Bacillus subtilis; test: Antibacterial activity against Bacillus subtilis ATCC 23857 incubated for 18 hrs by visual inspection method; format: functional
[20] = test system: Staphylococcus aureus; test: Antibacterial activity against methicillin resistant Staphylococcus aureus 2 incubated for 18 hrs by visual inspection method; format: functional
[21] = test system: Acinetobacter baumannii; test: Antibacterial activity against multidrug resistant Acinetobacter baumannii 4 incubated for 18 hrs by visual inspection method; format: functional
[22] = test system: Cell membrane; test: Induction of cell membrane damage in Staphylococcus aureus assessed as change in morphology by measuring deformed membrane at 4 times MIC incubated for 5 hrs by SEM analysis; format: cell membranes
[23] = test system: Cell membrane; test: Induction of cell membrane damage in Staphylococcus aureus assessed as change in morphology by measuring numerous blebs covered membrane at 4 times MIC incubated for 5 hrs by SEM analysis; format: cell membranes
[24] = test system: Cell membrane; test: Disruption of outer membrane integrity in Escherichia coli assessed as increase in fluorescence intensity by measuring NPN uptake measured every min for 15 mins by fluorescence based analysis; format: cell membranes
[25] = test system: Cell membrane; test: Induction of cell membrane damage in Staphylococcus aureus assessed as change in morphology by measuring roughened membrane at 4 times MIC incubated for 5 hrs by SEM analysis; format: cell membranes
[26] = test system: Erythrocyte; test: Hemolytic activity in rat erythrocytes incubated for 1 hr; format: toxicity, cell-based
[27] = test system: Acinetobacter baumannii; test: Antibacterial activity against multidrug resistant Acinetobacter baumannii 1 incubated for 18 hrs by visual inspection method; format: functional
[28] = test system: Cell membrane; test: Induction of cell membrane damage in Staphylococcus aureus assessed as decrease in red/green fluorescence ratio by DiOC2(3) fluorescent probe based assay; format: cell membranes
[29] = test system: Escherichia coli; test: Antibacterial activity against ESBL Escherichia coli 5 incubated for 18 hrs by visual inspection method; format: functional
[30] = test system: Escherichia coli; test: Antibacterial activity against Escherichia coli ATCC 25922 incubated for 18 hrs by visual inspection method; format: functional
[31] = test system: Staphylococcus aureus; test: Antibacterial activity against methicillin resistant Staphylococcus aureus 3 incubated for 18 hrs by visual inspection method; format: functional
[32] = test system: Staphylococcus aureus; test: Antibacterial activity against methicillin resistant Staphylococcus aureus 1 incubated for 18 hrs by visual inspection method; format: functional
[33] = test system: Acinetobacter baumannii; test: Antibacterial activity against multidrug resistant Acinetobacter baumannii 2 incubated for 18 hrs by visual inspection method; format: functional
[34] = test system: Erythrocyte; test: Hemolytic activity in rat erythrocytes at 250 ug/ml incubated for 1 hr; format: toxicity, cell-based; conditions: dose 250 µg/ml
[35] = test system: Escherichia coli; test: Antibacterial activity against ESBL Escherichia coli 4 incubated for 18 hrs by visual inspection method; format: functional
[36] = test system: Escherichia coli; test: Antibacterial activity against ESBL Escherichia coli 3 incubated for 18 hrs by visual inspection method; format: functional
[37] = test system: Cell membrane; test: Induction of cell membrane damage in Escherichia coli at 4 times MIC incubated for 30 mins by PI staining based confocal laser scanning microscopic analysis; format: cell membranes
[38] = test system: Escherichia coli; test: Antibacterial activity against Escherichia coli ATCC 25922 incubated for 18 hrs in presence of 100 mM NaCl by visual inspection method; format: functional
[39] = test system: Escherichia coli; test: Antibacterial activity against Escherichia coli ATCC 25922 incubated for 18 hrs in presence of 150 mM NaCl by visual inspection method; format: functional
[40] = test system: Staphylococcus aureus; test: Antibacterial activity against Staphylococcus aureus ATCC 25923 incubated for 18 hrs in presence of 150 mM NaCl by visual inspection method; format: functional
[41] = test system: Acinetobacter baumannii; test: Antibacterial activity against multidrug resistant Acinetobacter baumannii 3 incubated for 18 hrs by visual inspection method; format: functional
[42] = test system: Escherichia coli; test: Antibacterial activity against ESBL Escherichia coli 1 incubated for 18 hrs by visual inspection method; format: functional
[43] = test system: Cell membrane; test: Induction of cell membrane damage in Escherichia coli assessed as change in morphology by measuring deformed membrane at 4 times MIC incubated for 5 hrs by SEM analysis; format: cell membranes
[44] = test system: Staphylococcus aureus; test: Antibacterial activity against Staphylococcus aureus ATCC 25923 incubated for 18 hrs in presence of 50 mM NaCl by visual inspection method; format: functional
[45] = test system: Staphylococcus aureus; test: Antibacterial activity against Staphylococcus aureus infected in BALB/c mouse at 10 mg/kg administered every 4 hrs for 3 doses and measured after 4 hrs post last dose; format: functional, organism-based; conditions: time 16.0 hrs

## CC[C@H](C)[C@H](NC(=O)[C@H](Cc1c[nH]c2ccccc12)NC(=O)CNC(=O)[C@H](CCC(N)=O)NC(=O)[C@@H](N)CCCNC(=N)N)C(=O)N[C@@H](Cc1c[nH]c2ccccc12)C(=O)N[C@@H](Cc1ccc(O)cc1)C(=O)NCC(=O)N[C@@H](Cc1ccccc1)C(=O)N[C@@H](Cc1ccccc1)C(=O)N[C@@H](Cc1c[nH]c2ccccc12)C(=O)N[C@@H](CCCCN)C(=O)N[C@@H](CCCCN)C(N)=O (H-RQGWIWYGFFWKK-NH2)
[1]
  Activity: Tde
[2]
  MIC: 30 µg/mL
[3]
  MIC: 15 µg/mL (≈ 8.33 µM)
[4]
  Activity: Active
[5]
  Activity: Active
[6]
  Activity: Active
[7]
  Activity: Dose-Dependent Effect
[8]
  Activity: Active
[9]
  MIC: 7.5 µg/mL (≈ 4.16 µM)
[10]
  MIC: 60 µg/mL (≈ 33.3 µM)
[11]
  MIC: 15 µg/mL (≈ 8.33 µM)
[12]
  MIC: 7.5 µg/mL (≈ 4.16 µM)
[13]
  hemolysis at 1 h, 1000 ug/ml: 7.47%
[14]
  Activity: Toxic
[15]
  Activity: Tde
[16]
  MIC: 3.75 µg/mL (≈ 2.08 µM)
[17]
  MIC: 30 µg/mL (≈ 16.7 µM)
[18]
  MIC: 7.5 µg/mL
[19]
  MIC: 7.5 µg/mL (≈ 4.16 µM)
[20]
  MIC: 7.5 µg/mL (≈ 4.16 µM)
[21]
  MIC: 15 µg/mL (≈ 8.33 µM)
[22]
  Activity: Active
[23]
  Activity: Active
[24]
  Activity: Dose-Dependent Effect
[25]
  Activity: Active
[26]
  HC5: 560.73 µg/mL
[27]
  MIC: 15 µg/mL (≈ 8.33 µM)
[28]
  Activity: Dose-Dependent Effect
[29]
  MIC: 30 µg/mL (≈ 16.7 µM)
[30]
  MIC: 30 µg/mL (≈ 16.7 µM)
[31]
  MIC: 7.5 µg/mL (≈ 4.16 µM)
[32]
  MIC: 7.5 µg/mL (≈ 4.16 µM)
[33]
  MIC: 15 µg/mL (≈ 8.33 µM)
[34]
  Activity: Non-Toxic
[35]
  MIC: 30 µg/mL (≈ 16.7 µM)
[36]
  MIC: 30 µg/mL (≈ 16.7 µM)
[37]
  Activity: Active
[38]
  MIC: 30 µg/mL
[39]
  MIC: 30 µg/mL
[40]
  MIC: 7.5 µg/mL
[41]
  MIC: 15 µg/mL (≈ 8.33 µM)
[42]
  MIC: 30 µg/mL (≈ 16.7 µM)
[43]
  Activity: Active
[44]
  MIC: 7.5 µg/mL

## CN[C@H](CC(C)C)C(=O)N[C@H]1C(=O)N[C@@H](CC(N)=O)C(=O)N[C@H]2C(=O)N[C@H]3C(=O)N[C@H](C(=O)N[C@H](C(=O)O)c4cc(O)cc(O)c4-c4cc3ccc4O)[C@H](O)c3ccc(c(Cl)c3)Oc3cc2cc(c3O[C@@H]2O[C@H](CO)[C@@H](O)[C@H](O)[C@H]2O[C@H]2C[C@](C)(N)[C@H](O)[C@H](C)O2)Oc2ccc(cc2Cl)[C@H]1O [VANCOMYCIN]
[9]
  MIC: 0.94 µg/mL (≈ 0.649 µM)
[45]
  Activity: Active
[12]
  MIC: 0.94 µg/mL (≈ 0.649 µM)
[16]
  MIC: 0.94 µg/mL (≈ 0.649 µM)
[19]
  MIC: 0.94 µg/mL (≈ 0.649 µM)
[20]
  MIC: 0.94 µg/mL (≈ 0.649 µM)
[31]
  MIC: 0.94 µg/mL (≈ 0.649 µM)
[32]
  MIC: 0.94 µg/mL (≈ 0.649 µM)

Reference: ChEMBL document CHEMBL5614417, “Discovery of AMPs from random peptides via deep learning-based model and biological activity validation” (Eur J Med Chem, 2024)
